In brackets after ≈: the same amount, converted by molar mass.
What was measured:
Assay type in all cases: functional
Staphylococcus aureus = assay: Antibacterial activity against methicillin resistant Staphylococcus aureus subsp. aureus USA300 assessed as reduction in bacterial growth by CLSI based broth microdilution method
Clostridioides difficile = assay: Antibacterial activity against Clostridium difficile BAA1870 assessed as reduction in bacterial growth by CLSI based broth microdilution method
Candida albicans = assay: Antifungal activity against Candida albicans SS5314 assessed as reduction in fungal growth by CLSI based broth microdilution method
Escherichia coli [1] = assay: Antibacterial activity against Escherichia coli JW55031 harboring tolC mutation assessed as reduction in bacterial growth by CLSI based broth microdilution method
Escherichia coli [2] = assay: Antibacterial activity against Escherichia coli BW25113 assessed as reduction in bacterial growth by CLSI based broth microdilution method
Aspergillus fumigatus [3] = assay: Antifungal activity against Aspergillus fumigatus NR 35303 assessed as reduction in fungal growth incubated for 24 hrs by CLSI based broth microdilution method
Aspergillus fumigatus [4] = assay: Antifungal activity against Aspergillus fumigatus NR 35304 assessed as reduction in fungal growth incubated for 24 hrs by CLSI based broth microdilution method

Row | Compound | MIC (Staphylococcus aureus) [µg/mL] | MIC (Clostridioides difficile) [µg/mL] | MIC (Candida albicans) [µg/mL] | MIC (Escherichia coli [1]) [µg/mL] | MIC (Escherichia coli [2]) [µg/mL] | MIC (Aspergillus fumigatus [3]) [µg/mL] | MIC (Aspergillus fumigatus [4]) [µg/mL]
1 | Cc1nc(-c2ccc(C(C)(C)C)cc2)sc1-c1nnc(N2CCC[C@H]2C(N)=O)o1 | > 64 | 32 (≈ 77.8 µM) | > 64 | 64 (≈ 156 µM) | > 64 |  | 
2 | Cc1nc(-c2ccc(C(C)(C)C)cc2)sc1-c1nnc(N2CCC[C@@H]2C(N)=O)o1 | > 64 | 32 (≈ 77.8 µM) | > 64 | > 64 | > 64 |  | 
3 | Cc1nc(-c2ccc(C(C)(C)C)cc2)sc1-c1nnc(NCCCN)o1 | > 64 | 64 (≈ 172 µM) | 16 (≈ 43.1 µM) | > 64 | > 64 |  | 
4 | Cc1nc(-c2ccc(C(C)(C)C)cc2)sc1-c1nnc(NCCN)o1 | 8 (≈ 22.4 µM) | > 64 | 32 (≈ 89.5 µM) | > 64 | > 64 |  | 
5 | Cc1nc(-c2ccc(C(C)(C)C)cc2)sc1-c1nnc(NCC(O)CO)o1 (stereo unspecified) | > 64 | 32 (≈ 82.4 µM) | > 64 | > 64 | > 64 |  | 
6 | CC(=O)NC[C@H]1CN(c2ccc(N3CCOCC3)c(F)c2)C(=O)O1 [LINEZOLID] | 1 (≈ 2.96 µM) | 1 (≈ 2.96 µM) |  | 8 (≈ 23.7 µM) | > 64 |  | 
7 | Cc1nc(-c2ccc(C(C)(C)C)cc2)sc1-c1nnc(NC[C@@H](O)CO)o1 | > 64 | 32 (≈ 82.4 µM) | > 64 | > 64 | > 64 |  | 
8 | Cc1nc(-c2ccc(C(C)(C)C)cc2)sc1-c1nnc(NCC2CCCCN2)o1 (stereo unspecified) | 32 (≈ 77.8 µM) | 16 (≈ 38.9 µM) | > 64 | 16 (≈ 38.9 µM) | > 64 |  | 
9 | Cc1nc(-c2ccc(C(C)(C)C)cc2)sc1-c1nnc(NCCO)o1 | > 64 | 32 (≈ 89.3 µM) | > 64 | > 64 | > 64 |  | 
10 | Cc1nc(-c2ccc(C(C)(C)C)cc2)sc1-c1nnc(NCCN(C)C)o1 | 64 (≈ 166 µM) | 16 (≈ 41.5 µM) | 32 (≈ 83 µM) | 32 (≈ 83 µM) | > 64 |  | 
11 | CCC(C)n1ncn(-c2ccc(N3CCN(c4ccc(OCC5COC(Cn6cncn6)(c6ccc(Cl)cc6Cl)O5)cc4)CC3)cc2)c1=O (stereo unspecified) [ITRACONAZOLE] |  |  |  |  |  | 1 (≈ 1.42 µM) | 1 (≈ 1.42 µM)
12 | Cc1nc(-c2ccc(C(C)(C)C)cc2)sc1-c1nnc(NC(CO)CO)o1 | > 64 | > 64 | > 64 | > 64 | > 64 |  | 
